The test system of assay [1] is orthodromically evoked field potentials in CA1 zone of rat hippocampal slices. Nature of the assay: Orthodromically induced population spikes (field potentials) in CA1 zone of rat hippocampal slices. In kind it is cell-based. Conditions: for inhibition of orthodromically evoked field potentials by known P2X/P2Y agonists: in the same way as AppCH2ppA, FIG. 8, FIG. 9. The procedure: This study was carried out on 21-day old Wistar rats (WAG/GSto, Moscow, Russia). After rapid decapitation, rat brains were immediately transferred to a Petri dish with chilled (4° C.) solution of the composition 120 mM NaCl, 5 mM KCl, 26 mM NaHCO3, 2 mM MgCl2 and 20 mM glucose. Calcium salts were omitted to reduce possible neuronal damage. The solution was constantly bubbled with 95%O2/5%CO2 gas mixture to maintain pH7.4. Hippocampal slices ([…] thick) were cut manually with a razor blade along the alveolar fibres to preserve the lamellar structure of excitatory connections. During preincubation and experiments, the slices were kept fully submerged in the extracellular solution, pH7.4, comprised of 135 mM NaCl, 5 mM KCl, 26 mM NaHCO3, 1.5 mM CaCl2, 1.5 mM MgCl2, and 20 mM glucose, subjected to continuous bubbling with 95% O2/5% CO2) at 30-31° C. […] (RBI, Natick, Mass., USA) was also included into the extracellular solution during experiments to suppress the inhibitory activity of interneurons. Electrophysiological measurements were recording after at least 2 h of preincubation.
Excitatory postsynaptic currents (EPSCs) were recorded by a standard whole-cell patch clamp technique in the CA1 subfield of the hippocampus in response to stimulation of the Schaffer collateral/commissural pathway. To prevent the spread of electrical activity from area CA3, mini-slices were prepared by making a cut orthogonal to the stratum pyramidale extending to the mossy fibre layer. The intracellular solution, pH 7.2, for patch pipettes was comprised of 100 mM CsF (Merck, Darmstadt, FRG), 40 mM NaH2PO4, 10 mM HEPES-CsOH, 10 mM Tris-HCl. […] Access resistance was monitored throughout the experiments and ranged typically from 6 to 9MΩ. […] Extracellular field potentials were recorded using Ni/Cr electrodes. […] The effects of receptor agonists of antagonists were measured as the mean ratio I/Io where I was the current under the substances action and Io was the current in control saline. […]

Assay [2] deals with excitatory postsynaptic currents in CA1 pyramidal neuron. To be noted: cited from earlier work.
In assay [3] the test system is orthodromically evoked field potentials in CA1 zone of rat hippocampal slices. To be noted: cited from earlier work.
Assay [4] has as its system NMDA-receptor-mediated channels. Nature of the assay: NMDA-activated current in isolated hippocampal pyramidal neurons (whole-cell patch clamp). In kind it is cell-based, rat. The procedure: NMDA-receptor-activated currents were evoked by 1-2 sec long co-application of aspartate (ASP) (1 mM) and glycine (10 μM). Vh=−100 mV in Mg^2+ free solution.
Wistar rats (12-17-days old) were decapitated under ether anaesthesia and the hippocampus (or cerebellum) was removed. It was cut into slices (300-500 μm) in a solution containing (in mM): 150 NaCl; 5 KCl; 1.25 NaH2PO4; 26 NaHCO3; 1.1 MgCl2; 10 glucose; pH 7.4. Then the slices were incubated for 10 min at 32° C. with 0.5 mg/ml of protease (type XXIII) from Aspergillus oryzae. Single pyramidal cells from CA1 and CA3 stratum pyramidale layers were isolated by vibrodissociation locally in the stratum pyramidale CA3 and CA1 hippocampal pyramidal neurons were identified by their characteristic form and partially preserved dendritic arborisation.
After isolation the cells were usually suitable for recordings for 2-4 h. Throughout the entire procedure the solutions with the slices were continuously saturated with 95% O2 and 5% CO2 gas mixture to maintain pH 7.4. The tested substances were dissolved in DMSO to a stock concentration of 10 mM and kept frozen at −40° C. in daily aliquots. The substances were dissolved in external saline to their final concentration immediately before the experiments.
NMDA-activated currents in isolated neurons were induced by the step application of aspartate (1 mM) and […] in the “concentration clamp” mode (Krishtal et al., 1983), using the computerized “Pharma-Robot” set-up (Pharma-Robot, Kiev). This equipment allows a complete change of saline within 15 ms. Transmembrane currents were recorded using a conventional patch-clamp technique, in the whole-cell configuration. […] The intracellular solution contained (in mM): 70 Tris-PO4; 5 EGTA; 40 TEA-Cl (tetraethylammonium chloride); 30 Tris-Cl; 5 Mg-ATP; 0.5 GTP; pH 7.2. The composition of extracellular solution was (in mM):. 130 NaCl; 3 CaCl2; 5 KCl; 2 MgCl2; 10 HEPES-NaOH; 0.1 μM TTX; pH 7.4. Recording of the currents was performed using patch-clamp amplifiers (DAGAN, USA). Transmembrane currents were filtered at 3 kHz, stored and analysed with an IBM-PC computer using homemade software. NMDA responses were recorded with a 3 min interval. All experiments were performed at room temperature (19-24° C.).
(In general: Patch clamp records ionic current or voltage across a cell membrane.)

For assay [5], the system named is antidromically induced population spikes in CA1 zone of rat hippocampal slices. Nature of the assay: Antidromically induced population spikes in CA1 zone of rat hippocampal slices. It counts as cell-based. The protocol:
(§1) This study was carried out on 21-day old Wistar rats (WAG/GSto, Moscow, Russia). After rapid decapitation, rat brains were immediately transferred to a Petri dish with chilled (4° C.) solution of the composition 120 mM NaCl, 5 mM KCl, 26 mM NaHCO3, 2 mM MgCl2 and 20 mM glucose. Calcium salts were omitted to reduce possible neuronal damage. The solution was constantly bubbled with 95%O2/5%CO2 gas mixture to maintain pH7.4. Hippocampal slices ([…] thick) were cut manually with a razor blade along the alveolar fibres to preserve the lamellar structure of excitatory connections. […]
(§2) Excitatory postsynaptic currents (EPSCs) were recorded by a standard whole-cell patch clamp technique in the CA1 subfield of the hippocampus in response to stimulation of the Schaffer collateral/commissural pathway. […] Access resistance was monitored throughout the experiments and ranged typically from 6 to 9MΩ. […] Extracellular field potentials were recorded using Ni/Cr electrodes. […] The effects of receptor agonists of antagonists were measured as the mean ratio I/Io where I was the current under the substances action and Io was the current in control saline. […]

In assay [6] the test system is CFA-induced thermal hyperalgesia. The assay can be described thus: CFA-induced thermal hyperalgesia (Plantar test, paw withdrawal latency). It counts as in vivo, rat. The procedure:
CFA-Induced Thermal Hyperalgesia. Unilateral inflammation was induced by injecting 100 μl of 50% solution of CFA (Sigma) in physiological saline into the plantar surface of the right hind paw of the rat. The hyperalgesia to thermal stimulation was determined 48 h after CFA injections using the same apparatus as described below for the noxious acute thermal assay.
Thermal sensitivity: On each day following mechanical testing, rats will be placed in a thermal testing apparatus (Plantar test, Ugo Basile, Italy), in which they will be free to move. After 30 min of acclimatization, a constant-power IR stimulus will be focused through the glass base on to the sole of the foot, and the latency for reflex foot withdrawal will be recorded automatically via a photoelectric monitor as previously described Hargreaves et al. 1988.
In each test session, each rat (from 6 tested rats) was tested in three sequential trials at approximately 15 min intervals.

The test system of assay [7] is orthodromically evoked field potentials in CA1 zone of rat hippocampal slices. The assay can be described thus: Orthodromically induced population spikes (field potentials) in CA1 zone of rat hippocampal slices. It counts as cell-based.
The subject of assay [8] is excitatory postsynaptic currents in CA1 pyramidal neuron. Nature of the assay: Excitatory postsynaptic currents (EPSCs), whole-cell patch clamp in CA1 pyramidal neuron of hippocampal slices. In kind it is cell-based, rat. The procedure:
as §1, §2

Each structure is given as a SMILES string. Entries after “also recorded” stand apart in the source; their conditions may differ. Read-outs that look alike come from different tables or passages of the source.

This is an account of results in patent US20080319184A1, “Uses of Dinucleotide Polyphosphate Derivatives” (priority 2005, published 2008).

For `Nc1ncnc2c1ncn2[C@@H]1O[C@H](COP(=O)(O)OP(=O)(O)OP(O)(O)=S)[C@@H](O)[C@H]1O` [ATPγS], the “inhibition of orthodromically evoked field potentials by known P2X/P2Y agonists” value in assay [1] is listed as “unable to inhibit”.

For the molecule `Nc1ncnc2c1ncn2[C@@H]1O[C@H](COP(=O)(O)OP(=O)(O)OP(=O)(O)OP(=O)(O)OC[C@H]2O[C@@H](n3cnc4c(N)ncnc43)[C@H](O)[C@@H]2O)[C@@H](O)[C@H]1O` [Ap4A, diadenosine 5′,5′″-P^1,P^4-tetraphosphate], the “effect on excitatory postsynaptic currents” value in assay [2] (literature) is reported as “inhibition”. Besides, the “effect on orthodromically evoked field potentials” value in assay [3] (literature) is “inhibition”.

Consider `Nc1ncnc2c1ncn2[C@@H]1O[C@H](COP(=O)(O)OP(=O)(O)CP(=O)(O)OP(=O)(O)OC[C@H]2O[C@@H](n3cnc4c(N)ncnc43)C(O)C2O)C(O)C1O` (stereo partly shown) [AppCH2ppA], for which, in assay [1] (1.9, 3.7 and 7.4 μm applied in steps, all synaptic pathways incl. CA3-CA1 synapses (FIG. 5A)), the “effect on orthodromically evoked field potentials” value is “fast and reversible inhibition”. Further, the “effect on NMDA-activated current in presence of reactive blue” value in assay [4] (P2Y receptor antagonist reactive blue) is given as “eliminated”. The “effect on NMDA-activated current in presence of EDTA” value in assay [4] (chelator of bivalent cations EDTA) is “removed”. Moreover, the “amplitude of the NMDA-activated current” value in assay [4] (low micromolar concentrations, concentration-dependent manner) is “increased”. Besides, the “effect on NMDA-activated current after pre-treatment with genestein” value in assay [4] (non-specific tyrosine protein kinase inhibitor genestein) is given as “abolished”. For the same molecule, in assay [4] (purine P2 receptor antagonist PPADS), the “effect on NMDA-activated current in presence of PPADS” value is recorded as “eliminated”. Moreover, the “amplitudes of antidromic spikes” value in assay [5] (CA3-CA1 synapses, 1.9-7.4 μm (FIG. 5B)) is given as “remained unchanged”. Moreover, the “effect on amplitude of antidromically induced population spikes in presence of Ip4I” value in assay [5] (Ip4I 20 μM, then 7.4 μM (FIG. 11)) is “did not cause AppCH2ppA to have an effect”. In addition, the CFA-induced thermal hyperalgesia result in assay [6] (50 μmol/kg s.c.) is “attenuates”. In addition, the “thermal hyperalgesia, contra lateral paw” value in assay [6] (50 μmol/kg s.c. (FIG. 18)) is on record as “attenuates”. Further, in assay [6] (48 h (FIG. 18)), the “paw withdrawal latencies, contra lateral (non-inflamed) paw” value is “increases”. In addition, the “paw withdrawal latencies, CFA-injected paw” value in assay [6] (48 h after intraplantar CFA (FIG. 17)) is “increases”. For the same molecule, in assay [6] (at the doses tested, compared with injured paw), the “paw withdrawal latencies for the uninjured paw” value was “less effectively altered”. Moreover, the “thermal hyperalgesia, injured paw” value in assay [6] (s.c. administration, 48 h after intraplantar CFA (FIG. 17)) was “evidently potent; also recorded: fully blocked”. Moreover, the “onset of antinociceptive effects in the injured paw after injection” value in assay [6] (s.c., injured paw) is 3 h. The “effect on amplitude of orthodromically induced population spikes in presence of Ip4I” value in assay [7] (Ip4I 20 μM, then 7.4 μM (FIG. 10)) was “did hot alter”. Further, the “blocking effect on the orthodromic spikes in presence of PPADS” value in assay [7] (PPADS 20 μM applied first (FIG. 6)) was “completely abolished”. For the same molecule, the “reduction by PTIO of the extent of inhibition of orthodromically evoked field potentials” value in assay [7] (PTIO 1 mM, then 2.5 μM (FIG. 12)) is given as “over 50%”. The “inhibition of orthodromically evoked field potentials in presence of adenosine deaminase” value in assay [7] (adenosine deaminase approx. 2 U/ml, then 7.4 μM) was “eliminated”. The “inhibition of orthodromically evoked field potentials in presence of bicuculine” value in assay [7] (bicuculine 50 μM, then 7.4 μM) is “unaffected”. Besides, the “inhibition of orthodromically evoked field potentials in presence of CPT” value in assay [7] (cyclopentyl teophylline (CPT) 1 μM, then 7.4 μM (FIG. 7)) was “eliminated”. Further, the “inhibition of orthodromically evoked field potentials in presence of hexamethonium” value in assay [7] (hexamethonium 100 μM, then 7.4 μM) was “unaffected”. In addition, in assay [7] (strychnine 500 nM, then 7.4 μM), the “inhibition of orthodromically evoked field potentials in presence of strychnine” value is “unaffected”. The EPSC decay entry in assay [8] (FIG. 5C) is listed as “unchanged”. Also, in assay [8] (recorded in CA1 pyramidal neuron, 1.9-7.4 μm (FIG. 5C)), the “amplitudes of EPSCs” value is recorded as “remained unchanged”.

Regarding `Nc1ncnc2c1ncn2[C@@H]1O[C@H](CO)[C@@H](O)[C@H]1O` [adenosine], the “effect on EPSC amplitudes” value in assay [2] (shown previously (literature)) is on record as “diminish”. For the same molecule, in assay [3] (5 μM, shown previously (literature)), the “effect on orthodromic spikes” value is listed as “inhibit”.

On to `Nc1ncnc2c1ncn2[C@@H]1O[C@H](COP(=O)(O)CP(=O)(O)OP(=O)(O)O)[C@@H](O)[C@H]1O` [α,β-methylene-ATP], for which the “inhibition of orthodromically evoked field potentials by known P2X/P2Y agonists” value in assay [1] is recorded as “unable to inhibit”.
